Source: ChEMBL document CHEMBL2406912, “In vivo antimalarial activity of novel 2-hydroxy-3-anilino-1,4-naphthoquinones obtained by epoxide ring-opening reaction” (2013)

Key:
Assay type in all cases: functional
[1] = test system: Plasmodium berghei; experiment: Antimalarial activity against Plasmodium berghei NK65 infected in Swiss albino mouse assessed as increase of survival days of host at 100 mg/kg, po qd for 4 days (reference value: 20 +/- 2.7 days)
[2] = test system: Plasmodium berghei; experiment: Antimalarial activity against Plasmodium berghei NK65 infected in Swiss albino mouse assessed as inhibition of parasitemia at 100 mg/kg, po qd for 4 days measured on day 7 of after infection relative to control
[3] = test system: Plasmodium berghei; experiment: Antimalarial activity against Plasmodium berghei NK65 infected in Swiss albino mouse assessed as inhibition of parasitemia at 100 mg/kg, po qd for 4 days measured on day 5 of after infection relative to control
[4] = test system: Plasmodium berghei; experiment: Antimalarial activity against Plasmodium berghei NK65 infected in Swiss albino mouse assessed as increase of survival days of host at 10 mg/kg, po qd for 4 days (reference value: 20 +/- 2.7 days)
[5] = test system: Plasmodium berghei; experiment: Antimalarial activity against Plasmodium berghei NK65 infected in Swiss albino mouse assessed as inhibition of parasitemia at 10 mg/kg, po qd for 4 days measured on day 5 to 7 of after infection relative to control

SMILES	MSD [1] [days]	inhibition in vivo at 100 mg/kg [2] [%]	inhibition in vivo at 100 mg/kg [3] [%]	MSD [4] [days]	inhibition in vivo at 10 mg/kg [5] [%]
O=C1C(O)=C(Nc2ccccc2)C(=O)c2ccccc21	32.5	18.5	53.3		
COc1ccc(NC2=C(O)C(=O)c3ccccc3C2=O)cc1	26	25.9	66.6		
Cc1cccc(C)c1NC1=C(O)C(=O)c2ccccc2C1=O	26.7	0	0		
CCN(CC)CCCC(C)Nc1ccnc2cc(Cl)ccc12 (stereo unspecified) [CHLOROQUINE]				>60	98
